Test results: PMC13197777, “Distinct 2-phenylimidazo[1,2-a]pyridine derivatives that inhibit breast cancer cell proliferation identified as AHR ligands” (iScience, 2026)
≈ marks a conversion by molar mass, not a printed value. Read-outs that look alike come from different tables or passages of the source.

What was measured:
[1] = system: MCF-7 luc; assay: Clonogenic assay (clonal expansion), MCF-7 cells expressing wild-type ER; type: cell-based; details: Homo sapiens, MCF7, 336 h
Protocol: (§1) Cells were seeded at a density of 1–2×10^3 cells/well in a 6-well plate and treated with increasing concentrations of the X compounds for 14–21 days. Medium and compounds were renewed every 7 days. The experiments were terminated by fixing the cells with methanol and the colonies formed were visualized after staining with 0.5% crystal violet (w/v) in 20% methanol (v/v). Plates were photographed and the area covered by the colonies was calculated using the ColonyArea Plugin for Fiji (RRID:SCR_003070).[20]

[2] = system: MCF-7 luc D538G; assay: Clonogenic assay (clonal expansion), MCF-7 cells with D538G ER mutation; type: cell-based; details: Homo sapiens, MCF7, 336 h
Protocol: as §1

[3] = system: MCF-7 luc Y537S; assay: Clonogenic assay (clonal expansion), MCF-7 cells with Y537S ER mutation; type: cell-based; details: Homo sapiens, MCF7, 336 h
Protocol: as §1

[4] = system: MCF-7 luc D538G and MCF-7 luc Y537S; assay: Clonogenic assay, cells expressing the two mutant ERs (range over both); type: cell-based; details: Homo sapiens, MCF7, read-out: IC50 clonal expansion in cells expressing the two mutant ERs
Protocol: as §1

[5] = system: CTC-ITB-01 cells; assay: cells; type: cell-based; details: Homo sapiens, read-out: LC50
Protocol: LC50 values were measured using the CyQUANT NF Cell Proliferation Assay Kit (Thermo Fisher). CTC-ITB-01 cells were plated at a density of 2x10^3 cells/well in 96-well plates and treated the following day with serial dilutions of the test compounds. After incubation for the indicated time, cells were stained with CyQUANT dye according to the manufacturer’s protocol and incubated at 37°C for 30 min. Fluorescence was measured using a Tecan Infinite M Nano+ (excitation: 485 nm; emission: 530 nm). For the calculation of the LC50 the fluorescence was plotted against the Log10 of the inhibitor concentration in nM as x values and the LC50 values were calculated with 95% confidence intervals (n = 4).

[6] = system: PDxO#28; assay: Organoid viability, CellTiter-Glo 3D; type: cell-based, human; details: PDxO#28 in 3D Matrigel, 7 days, increasing doses; same results in PDO#268 and PDO#480
Source text: Organoids were generated from patients’ samples and from patient-derived xenograft (PDX) tumors, as previously described.[25] PDX were derived from BCRO#28, an ER^+ breast cancer sample collected from a treatment naive patient. PDO#268 was derived from BCRO#268, an ER^+ breast cancer sample collected from treatment naive patient. PDO#480 was derived from BCRO#480, an ER^+ breast cancer sample collected from a patient subjected to chemotherapy in neo-adjuvant setting. Briefly, tumors freshly explanted from mice were mechanically shredded, digested with collagenase (Merck) and filtered through a 100 μm strainer. Digested material (isolated cells and small cell clusters) was centrifuged and embedded in 3D-matrix drops (reduced growth factor Basement Membrane Extract, BME, R&D systems), then overlaid with breast cancer organoid medium.[25] For 3D survival curves under treatment, organoids were embedded in BME drops and, after 24 - 48 h, drugs were added. Fresh drug-containing medium was replaced on day 4. On day 7 of treatment, CellTiter-Glo 3D Cell Viability Assay (Promega) was added and luminescent signal from viable organoids was recorded on Infinite M1000 Pro instrument (Tecan).

[7] = target: T1, ERα full-length (Homo sapiens, UniProt P03372); assay: PolarScreen ERα Competitor Assay (fluorescence polarization); type: binding
T1 construct: 34 nM ERα full-length and 1.4 nM Fluormone EL Red were incubated; purchased ThermoFisher A15884
T1 sequence (P03372 1-595): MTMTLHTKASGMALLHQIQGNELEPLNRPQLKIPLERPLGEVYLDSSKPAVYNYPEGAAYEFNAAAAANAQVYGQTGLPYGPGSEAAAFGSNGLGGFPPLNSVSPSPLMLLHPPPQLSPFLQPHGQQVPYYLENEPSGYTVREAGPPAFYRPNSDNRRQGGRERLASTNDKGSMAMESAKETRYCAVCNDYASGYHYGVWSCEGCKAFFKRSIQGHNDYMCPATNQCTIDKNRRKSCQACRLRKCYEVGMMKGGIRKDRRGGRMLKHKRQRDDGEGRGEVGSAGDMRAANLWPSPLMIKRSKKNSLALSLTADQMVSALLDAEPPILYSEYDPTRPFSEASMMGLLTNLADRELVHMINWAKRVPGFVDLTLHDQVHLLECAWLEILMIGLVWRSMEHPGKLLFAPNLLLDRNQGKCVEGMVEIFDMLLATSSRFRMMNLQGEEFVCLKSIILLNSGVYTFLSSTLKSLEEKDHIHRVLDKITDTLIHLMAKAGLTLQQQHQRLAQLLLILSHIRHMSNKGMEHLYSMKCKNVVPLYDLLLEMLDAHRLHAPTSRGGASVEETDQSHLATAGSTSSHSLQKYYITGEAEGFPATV
Protocol: The PolarScreen Estrogen Receptor-Alpha Competitor Assay, Red (ThermoFisher, A15884) was used to determine if the X compounds bind to ERα. The assay was performed according to the manufacturer’s protocol.

[8] = system: ERα LBD or full-length ERα; assay: Nuclear receptor activity profiling (NAPing), E2-induced ERα-coregulator interaction; type: biochemical; details: E2 −8.5 logM, compound −5.5 logM, LBD or full-length ER
Protocol: Preparation of assay mixes with ERα recombinant ligand binding domain (LBD) and full-length ERα in MCF-7 extracts and measurement of coregulator recruitment on the NAPing platform (PML, Oss, The Netherlands) was performed as described previously.[68]^,[69] […] Unbound ERα and antibodies were removed by washing. Residual ERα binding to each coregulator motifs was recorded on tiff images and quantified using an R-based analysis software package (PML, Oss, The Netherlands).

[9] = system: MCF-7 cells; assay: Clonogenic assay in MCF-7 cells with AHR antagonist CH223191; type: cell-based, human; details: MCF-7, 10 nM compound, 1 μM CH223191, 14 days
Protocol: as §1

[10] = design: method as in earlier work; details: IUPAC Digitized pKa Dataset ref 30; cited from earlier work
[11] = Thermodynamic solubility, shake-flask method; type: physicochemical; details: HEPES buffer 0.1 M pH 7.4, 21 °C
Protocol: Thermodynamic solubility was determined using the classical shake-flask method. The solid compound (4 mg) was suspended in 1 mL HEPES buffer (0.1 M, pH 7.4) and constantly stirred at 21 °C for 24 h. […] The injection volume for all analyses was 50 μL and the flow rate was kept at 1 mL/min during the analysis. A mobile phase gradient method was applied as a method with 5% solvent B to 99% solvent B in 5 min, followed by 3 min of elution at 99% solvent B.
Calibration curve was generated from a serial dilution of the respective analyte in DMSO at 2.5, 1.25, 0.625, 0.313, 0.156, 0.078, 0.039 mM starting from a 10 mM DMSO stock solution. Subsequently, 2 μL of each dilution was added to 198 μL of a buffer (HEPES, 0.1 M, pH 7.4)/acetonitrile mixture in a 3:2 ratio yielding final dilutions of 25, 12.5, 6.25, 3.125, 1.562, 0.781, 0.391 μM. These were then subjected to HPLC analysis as described above.
Using the results from the linear regression of the internal calibration measurement points (Figure S5) and the mean AUC values from the saturated aqueous solutions, the concentration C of the analytes in the saturated aqueous solution, expressed in μM, were calculated using Equation 2:(Equation 1) AUC=Slope·C+YIntercept (Equation 2) C=AUC−YIntercept/Slope

[12] = Compound stability in aqueous environment; type: physicochemical; details: 12.5 μM, HEPES pH 7.4/acetonitrile 3:2, 1% DMSO, 21 °C, 5 days
Protocol: The stability of the compounds was evaluated at a concentration of 12.5 μM in a 3:2 mixture of buffer (HEPES, 0.1 M, pH 7.4) and acetonitrile, with 1% DMSO. Acetonitrile was added because the concentration of 12.5 μM exceeded the thermodynamic solubility of the compounds in the buffer. This addition thereby prevented the formation of precipitates and a gradual decrease in compound concentration during the measurement. The resulting solution was stirred at 21 °C in a sealed vial (crimp neck vials, 5 mL, clear (Cat. No. 548-0611A) in combination with natural rubber septa (548-0565A) and aluminum crimp caps (548-3278A), VWR International) for 5 days. […] The AUC measured was subsequently plotted as a function of the incubation time (Figure S3). No signs of decomposition could be observed over the given time.

[13] = system: ERα in MCF-7 cells; assay: Immunoblot of ERα in MCF-7 cells; type: cell-based, human; details: MCF-7, 48 h, increasing concentrations up to 1 μM
Protocol: To determine the relative expression of proteins by Western blotting, cells were first washed with ice-cold phosphate buffered saline (PBS). Subsequently, they were lysed in ice-cold NP40 lysis buffer (1%NP-40, 50 mM Tris-HCl, pH 8.0, 150 mM NaCl, 5 mM Ethylenediaminetetraacetic acid [EDTA], 1 mM PMSF) on ice. DNA was degraded by sonification (five pulses at 50 amplitudes). Protein concentration was determined, and equal amounts of protein were separated on a 9% SDS-PAGE gel. The proteins were transferred onto nitrocellulose membrane by a standard Western blotting protocol and the membranes were incubated with the following antibodies: ERα (Santa Cruz Biotechnology, sc-8002, RRID: AB_627558) and PCNA (Santa Cruz Biotechnology, sc-56, RRID: AB_628110), followed by incubation with HRP labeled Goat anti-mouse Immunoglobulins (DAKO, P0447, RRID: AB_2617137).

[14] = system: AHR target genes CYP1A1, CYP1B1, ALDH3A1; details: human, 16 h, 1 µM
[15] = HEPES buffer, 21 °C, pH 7.4, aqueous buffer, thermodynamic from solid

C[C@]12CC[C@@H]3c4ccc(O)cc4C[C@@H](CCCCCCCCC[S+]([O-])CCCC(F)(F)C(F)(F)F)[C@H]3[C@@H]1CC[C@@H]2O (some centres unmarked) [Fulvestrant, reference compound]
IC50 ([1]; Figure 1B, MCF-7 luc, absence of E2, 14 days): 0.00014 µM
IC50 ([1]; Figure 1C, MCF-7 luc + 10 nM E2, 14 days): 0.0692 µM
IC50 ([1]; Figure 1D, MCF-7 luc, absence of E2, 14 days): 0.00012 µM
IC50 ([1]; Figure 1E, MCF-7 luc + 10 nM E2, 14 days): 0.0781 µM
IC50 ([2]; read-out: IC50 clonal expansion, Figure 1B, MCF-7 luc D538G, absence of E2, 14 days): 0.00957 µM
IC50 ([2]; read-out: IC50 clonal expansion, Figure 1C, MCF-7 luc D538G + 10 nM E2, 14 days): 1.91 µM
IC50 ([2]; read-out: IC50 clonal expansion, Figure 1D, MCF-7 luc D538G, absence of E2, 14 days): 0.0122 µM
IC50 ([2]; read-out: IC50 clonal expansion, Figure 1E, MCF-7 luc D538G + 10 nM E2, 14 days): 1.91 µM
IC50 ([3]; read-out: IC50 clonal expansion, Figure 1B, MCF-7 luc Y537S, absence of E2, 14 days): 0.0066 µM
IC50 ([3]; read-out: IC50 clonal expansion, Figure 1C, MCF-7 luc Y537S + 10 nM E2, 14 days): 0.149 µM
IC50 ([3]; read-out: IC50 clonal expansion, Figure 1D, MCF-7 luc Y537S, absence of E2, 14 days): 0.00747 µM
IC50 ([3]; read-out: IC50 clonal expansion, Figure 1E, MCF-7 luc Y537S + 10 nM E2, 14 days): 0.147 µM
IC50 [4]: 0.0066 to 0.00957 µM
CC50 ([5]; 48 h): 8.8 µM
CC50 ([5]; 120 h): 6.3 µM
organoid viability (survival) [6]: modest
displacement of the Fluormone tracer from ERα [7]: efficiently displaced the Fluormone tracer
disruption of coactivator peptide binding to E2-liganded ERα [8]: clearly disrupted binding of the coactivator peptides
inhibition of colony expansion in the presence of AHR antagonist CH223191 [9]: inhibited colony growth in the presence of CH223191

c1ccn2ccnc2c1 [Imidazo(1,2-a)pyridine]
experimental pKa [10]: 6.79

FC(F)(F)c1cc(Cl)c2nc(-c3ccccc3)cn2c1 [X15696]
solubility thermodynamic at 24 h [11]: 5 µM (≈ 1.48 µg/mL)
solubility thermodynamic at 24 h [11, 15]: 5.11 µM (≈ 1.52 µg/mL)
stability in aqueous environment [12]: no obvious decomposition detected
inhibition of colony expansion in the presence of AHR antagonist CH223191 [9]: clearly abrogated by the AHR antagonist CH223191
ERα destabilization (immunoblot) [13]: most proficient in destabilizing ERα
expression of AHR target genes (RT-PCR) [14]: enhanced the transcriptional activity of the AHR target genes in both MCF-7 and T47D cells

Fc1ccccc1-c1cn2cc(C(F)(F)F)cc(Cl)c2n1 [X19720]
solubility thermodynamic at 24 h [11]: 1.4 µM (≈ 0.441 µg/mL)
solubility thermodynamic at 24 h [11, 15]: 1.35 µM (≈ 0.425 µg/mL)
stability in aqueous environment [12]: no obvious decomposition detected
inhibition of colony expansion in the presence of AHR antagonist CH223191 [9]: clearly abrogated by the AHR antagonist CH223191
ERα destabilization (immunoblot) [13]: most proficient in destabilizing ERα
expression of AHR target genes (RT-PCR) [14]: enhanced the transcriptional activity of the AHR target genes in both MCF-7 and T47D cells
